Converted amounts (≈) assume the structure as drawn. “And” between values parts separate entries of the source, which are not always exact repeats. Equal values may be shown once. Marks after values point to notes of the source that are not given here.
Columns and labels:
[1] = pH of the saturated aqueous solutions; type: physicochemical; conditions: saturated aqueous solution of the solubility experiment
Procedure, shortened: (§1)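 Excess solid stirred in water in triplicate, settled 2 h; pH of the saturated solution measured, then filtered (0.22 μm), diluted and quantified by UV absorbance against calibration curves at 298.15 K. Residual solids examined by DSC and XRD for phase changes.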

[2] = Gibbs energy of hydration and Henry's law volatility constant calculated from sublimation and solubility data; conditions: 25 °C
Procedure, shortened: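 Aqueous solubility of each purified compound measured by UV absorbance (260–306 nm by compound); residual solids checked by DSC and XRD for phase change. ΔhydrGm° derived from solubility and sublimation Gibbs energy (Eq. 4; standard states p° = 1 × 10^5 Pa, c° = 1 mol·L^−1), then converted to Henry's law volatility constants (log form).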

[3] = Vapor pressures of crystalline and liquid phases, static method with capacitance diaphragm gauge; type: physicochemical
Procedure, shortened: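 Static method with capacitance diaphragm gauge (range 0.5 to 1.3 × 10^3 Pa, gauge at 473 K) on degassed crystalline and liquid samples; sample temperature by calibrated Pt100, u(T/K) = ±0.01. Connecting tubing held between sample and gauge temperatures; U(p/Pa) = 0.1 + 0.0050 (p/Pa) at k = 2.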

[4] = Equilibrium solubility in water, saturation shake-flask method with UV-vis; conditions: 25 °C, thermodynamic from solid
Procedure, shortened: as §1

## O=Cc1ccc(Cl)cc1 [4-Chlorobenzaldehyde]
[1]
  pH of the saturated solution: 6.61
[2]; calculated by Equation (4)
  Gibbs energy of hydration ΔhydrGm°: -4.23 kcal/mol
[2]; calculated by Equation (6)
  log10(KHpc/kPa·m^3·mol^−1) Henry's law volatility constant: −2.71
[2]; value is KHpc multiplied by 10^3
  KHpc×10^3 Henry's law volatility constant: 1.95 kPa·m^3·mol^−1
[3]; crystalline phase, T = 267.45 K
  vapor pressure p: 0.57 Pa
[3]; crystalline phase, T = 269.33 K
  vapor pressure p: 0.72 Pa
[3]; crystalline phase, T = 271.42 K
  vapor pressure p: 0.93 Pa
[3]; crystalline phase, T = 273.29 K
  vapor pressure p: 1.15 Pa
[3]; crystalline phase, T = 275.39 K
  vapor pressure p: 1.48 Pa
[3]; crystalline phase, T = 277.25 K
  vapor pressure p: 1.84 Pa
[3]; crystalline phase, T = 279.32 K
  vapor pressure p: 2.33 Pa
[3]; crystalline phase, T = 281.20 K
  vapor pressure p: 2.90 Pa
[3]; crystalline phase, T = 283.26 K
  vapor pressure p: 3.60 Pa
[3]; crystalline phase, T = 285.16 K
  vapor pressure p: 4.49 Pa
[3]; crystalline phase, T = 287.22 K
  vapor pressure p: 5.65 Pa
[3]; crystalline phase, T = 289.23 K
  vapor pressure p: 6.93 Pa
[3]; crystalline phase, T = 291.18 K
  vapor pressure p: 8.49 Pa
[3]; crystalline phase, T = 293.07 K
  vapor pressure p: 10.45 Pa
[3]; crystalline phase, T = 295.14 K
  vapor pressure p: 12.75 Pa
[3]; crystalline phase, T = 297.14 K
  vapor pressure p: 15.67 Pa
[3]; crystalline phase, T = 299.12 K
  vapor pressure p: 19.07 Pa
[3]; crystalline phase, T = 300.99 K
  vapor pressure p: 23.01 Pa
[3]; crystalline phase, T = 303.05 K
  vapor pressure p: 28.05 Pa
[3]; crystalline phase, T = 305.04 K
  vapor pressure p: 34.26 Pa
[3]; crystalline phase, T = 306.98 K
  vapor pressure p: 40.71 Pa
[3]; crystalline phase, T = 309.01 K
  vapor pressure p: 49.06 Pa
[3]; crystalline phase, T = 310.96 K
  vapor pressure p: 58.06 Pa
[3]; crystalline phase, T = 312.92 K
  vapor pressure p: 69.28 Pa
[3]; crystalline phase, T = 314.91 K
  vapor pressure p: 82.74 Pa
[3]; liquid phase, T = 319.87 K
  vapor pressure p: 125.4 Pa
[3]; liquid phase, T = 321.85 K
  vapor pressure p: 143.8 Pa
[3]; liquid phase, T = 323.75 K
  vapor pressure p: 162.2 Pa
[3]; liquid phase, T = 325.71 K
  vapor pressure p: 183.0 Pa
[3]; liquid phase, T = 327.66 K
  vapor pressure p: 206.8 Pa
[3]; liquid phase, T = 329.70 K
  vapor pressure p: 235.5 Pa
[3]; liquid phase, T = 331.69 K
  vapor pressure p: 264.4 Pa
[3]; liquid phase, T = 333.66 K
  vapor pressure p: 298.2 Pa
[3]; liquid phase, T = 335.64 K
  vapor pressure p: 336.0 Pa
[3]; liquid phase, T = 337.61 K
  vapor pressure p: 375.5 Pa
[3]; liquid phase, T = 339.57 K
  vapor pressure p: 415.3 Pa and 416.0 Pa
[3]; liquid phase, T = 341.56 K
  vapor pressure p: 468.0 Pa
[3]; liquid phase, T = 343.52 K
  vapor pressure p: 520.0 Pa
[3]; liquid phase, T = 345.50 K
  vapor pressure p: 578.0 Pa
[3]; liquid phase, T = 347.47 K
  vapor pressure p: 640.9 Pa
[3]; liquid phase, T = 347.50 K
  vapor pressure p: 641.0 Pa
[3]; liquid phase, T = 349.45 K
  vapor pressure p: 711.8 Pa
[3]; liquid phase, T = 351.43 K
  vapor pressure p: 788.7 Pa
[3]; liquid phase, T = 353.30 K
  vapor pressure p: 864.6 Pa
[3]; liquid phase, T = 355.30 K
  vapor pressure p: 958.0 Pa
[3]; liquid phase, T = 357.33 K
  vapor pressure p: 1058 Pa
[3]; supercooled liquid, T = 305.70 K
  vapor pressure p: 48.17 ^d Pa
[3]; supercooled liquid, T = 307.91 K
  vapor pressure p: 56.22 ^d Pa
[3]; supercooled liquid, T = 309.86 K
  vapor pressure p: 65.09 ^d Pa
[3]; supercooled liquid, T = 311.92 K
  vapor pressure p: 75.03 ^d Pa
[3]; supercooled liquid, T = 313.90 K
  vapor pressure p: 86.06 ^d Pa
[3]; supercooled liquid, T = 315.83 K
  vapor pressure p: 96.33 ^d Pa
[3]; supercooled liquid, T = 317.92 K
  vapor pressure p: 110.0 ^d Pa
[4]
  solubility at 72 h: 8.83 mM (≈ 1240 µg/mL)

Source: article PMC11990670, “Exploring the Volatility, Phase Transitions, and Solubility Properties of Five Halogenated Benzaldehydes” (Molecules, 2025)
